{"source": "patent US10240133B2", "about": "“ERK-derived peptides and uses thereof” (Yeda Research and Development Co. Ltd., priority 2013, dated 2019)", "key": {"A2352 xenografts": {"tested_on": "A2352 xenografts", "experiment": "Tumor disappearance and recurrence in A2352 xenografts, EPE peptide compared with PLX4032", "assay_type": "in vivo, SCID mice", "description": "FIGS. 6A-6B illustrate that the EPE peptide prevents the growth of human tumor xenografts. CD-1 nude mice were inoculated with MDA-MB-231, LOXIMVI and HCT-116 cells, and SKID mice were inoculated with A2352 cells. Upon tumors establishment, the mice were treated intravenously with the DMSO as well as EPE or Scr peptides in the indicated doses, 3 times a week. The results are averages of 5 mice in each experimental group. The X, Y, Z dimensions of the tumors were measured with a caliper, and the volume was calculated accordingly. The significance of all experiments was at least P<0.001. (B) The EPE peptide prevents tumor recurrence on melanoma xenograft. SCID mice were inoculated with A2352 cells. Upon establishment of tumors mice were treated intravenously with 15 mg/kg EPE peptide (n=7) or intraperitonealy with 15 mg/kg PLX4032 (n=5), at the indicated dose 3 times a week. Tumor size was recorded at the same time using a caliper. Following 3 weeks of treatment, mice were kept for further evaluation monitoring for any tumor recurrence of the effective treated melanoma xenografts. Experiment was concluded 110 days post inoculation (11 weeks after the last treatment) and the overall state of the animals was evaluated. sac=sacrificed, recur=recurrence, met=metastasis.\nTumor dimensions were measured with a digital sliding caliper."}, "[1]": {"tested_on": "PLX-4032 and U0126 resistant A2352 melanoma cells", "experiment": "Proliferation of inhibitor-resistant melanoma cells", "assay_type": "cell-based", "details": "10 μM, 72 h", "protocol": "(A) A2352 melanoma cells resistant to either PLX4032 (B-Raf) or U0126 (MEK) inhibitors were treated with DMSO, EPE or Scr peptide (10 μM), U0126 (10 μM), PLX4032 (1 μM), Wortmannin (0.5 μM) or Taxol (25 μg/ml). Presented as percent of viable cells at 72 h/initial cell number. […] Methylene blue assay was performed to quantify viable cells. Experiments were done twice in triplicate. Data presented as fold change.\nA2352 cells were supplemented with either PLX4032 (B-Raf inhibitor, 1 μM), or U0126 (MEK inhibitor, 10 μM) for 45 days. […]"}, "ERK1/2": {"tested_on": "ERK1/2", "experiment": "Western blotting of ERK phosphorylation (TEY, NTS)", "assay_type": "cell-based", "description": "(A) EPE peptide prevents ERK1/2-importin7 interaction. HeLa cells were serum starved (0.1%, 16 hours), pretreated with EPE peptide, scrambled peptide (10 μM, 2 hours) or DMSO, and then stimulated with TPA (250 nM, 15 min). ERK1 were precipitated with αgERK1 Ab; importin7 co-immunoprecipitated with ERK1 was detected by WB with αimportin7 Ab. […] T47D, HeLa, MDA-MB-231 and A2352 cells were serum starved (0.1%, 16 hours), pretreated with EPE peptide, scrambled peptide (10 μM, 2 hours) or DMSO control, and then stimulated with TPA (250 nM, indicated times). Cell extracts were subjected to Western blot analysis with the indicated Abs. (C) EPE peptide inhibits phosphorylation of c-Myc and Elk1 in B-Raf melanomas. A2158 and A2352 cells were treated with scrambled and EPE peptide for two hours and then stimulated with the indicated concentration of TPA for 30 min. […] (D) Quantification of some of the results in B and C. […]\n(i) Preparation of cellular extracts for Western Blotting: Cells were rinsed twice with ice-cold PBS and scraped into Radio-immunoprecipitation assay buffer (RIPA; 137 mM NaCl, 20 mM Tris (pH 7.4), 10% glycerol, 1% Triton X-100, 0.5% deoxycholate, 0.1% SDS, 2 mM EDTA, 1 mM PMSF, and 20 μM leupeptin). The extracts were centrifuged (20,000×g, 15 min, 4° C.), and the supernatants were further analyzed by Western blotting. […]"}, "[2]": {"tested_on": "non-transformed melanocytes (NHEM-Ad)", "experiment": "Cell viability, EPE peptide compared with PLX4032", "assay_type": "cell-based", "details": "EPE 10 μM, PLX4032 1 μM, 1% FCS", "description": "(§1) FIGS. 3A-3B illustrate that EPE peptide prevents proliferation of cancer but not normal cells. (A) Effect of the EPE peptide on the proliferation of various cell lines. Sixteen cancer and four “normal” immortalized cell lines were treated with either EPE or scrambled peptides as described above. Viable cells were assayed by Methylene Blue at 48 or 72 hours after cell seeding. The data from at least three independent experiments is presented as percent of the amount of viable cells/initial cell number, where initial cell number was considered as 100. (B) Comparison of the effects of the EPE-peptide and Raf inhibitor PLX4032 on cell viability. NHEM-Ad, LOXIMVI, A2352, Hela MDA-MB-231, and DU-145 cells were treated with EPE peptide, scrambled peptide, (10 μM), PLX4032 (1 μM), DMSO control, or no treatment at 1% FCS. The number of cells was detected as above. The graphs present the kinetic of cell growth at the indicated times. All experiments were repeated 3 times in triplicates.\n(§2) All cells, except of MCF-10A, were seeded into 12-well cell plates in 1% FBS medium. MCF-10A cells were seeded in their complete medium diluted 5 fold. DMSO, Scr peptide, EPE peptide, or U0126 (final concentration of 10 μM each) were added to the appropriated wells four hours later. Every day medium was changed to fresh one containing the same agents. The number of viable cells was measured by Methylene Blue assay at 72 h after cell seeding. Shortly, cells were fixed with 4% Formaldehyde for 2 h at 23° C., washed once with 0.1M Borate Buffer pH 8.5 and stained with of 1% Methylene Blue in 0.1M Borate Buffer for 10 min. Color was extracted by adding 0.1 M HCl for 3 h at 23° C., and examined at 595 nm. For time course experiments, viable cells were measured at 0, 24, 48, 72 and 96 h after cell seeding. For dose response experiments we treaded the cells with 0.1, 1, 3, 10, or 30 μM of peptides for 72 h, as described above."}, "[3]": {"tested_on": "all other transformed cell lines examined (A2352, Hela, MDA-MB-231, DU-145)", "experiment": "Cell viability, EPE peptide compared with PLX4032", "assay_type": "cell-based", "details": "EPE 10 μM, PLX4032 1 μM, 1% FCS", "description": "as §1, §2"}, "[4]": {"tested_on": "N-Ras transformed melanoma cells LOXIMVI", "experiment": "Cell viability, EPE peptide compared with PLX4032", "assay_type": "cell-based", "details": "EPE 10 μM, PLX4032 1 μM, 1% FCS", "description": "as §1, §2"}}, "note": "“Also recorded” adds a separate entry of the source.", "data": [{"sequence": "GQLNHILGILGEPEQED (Synthetic peptide (EPE)) [EPE peptide, NTS-derived peptide with phosphomimetic EPE motif]", "values": [{"measurement": "time to complete disappearance of tumors", "setting": "A2352 xenografts; 15 mg/kg, 3 times a week", "value": "10 to 23", "unit": "days"}, {"measurement": "tumor disappearance", "setting": "A2352 xenografts; 15 mg/kg, 3 times a week, 3 weeks, EPE i.v. (n=7), PLX4032 i.p. (n=5), initial ~80 mm3 tumors", "value": "complete disappearance of the tumors of all mice"}, {"measurement": "overall state of animals after treatment", "setting": "A2352 xenografts; follow up after last treatment, incl. 5 other animals in a repeating experiment", "value": "remained healthy up to 11 weeks after treatment"}, {"measurement": "mice with tumor recurrence", "setting": "A2352 xenografts; follow up for up to 11 weeks after last treatment", "value": "None"}, {"measurement": "cell growth", "setting": "[1]", "value": "able to reduce cell growth"}, {"measurement": "NTS phosphorylation (by CK2) of ERK1/2", "setting": "ERK1/2; T47D, HeLa, MDA-MB-231 and A2352 cells", "value": "only slightly affected; also recorded: prevents ERK1/2's NTS"}, {"measurement": "activatory ERK-TEY phosphorylation", "setting": "ERK1/2; four distinct cell lines", "value": "no effect"}, {"measurement": "viability", "setting": "[2]", "value": "does not have any significant effect"}, {"measurement": "effect on viability relative to PLX4032", "setting": "[3]", "value": "at least as good, or even better, than that of PLX4032"}, {"measurement": "viability", "setting": "[4]", "value": "able to reduce the viability"}]}]}
